Measured values from patent publication US20240336577A1, “PYRAZINE COMPOUND, AND METHOD OF PREPARATION AND USE THEREOF” (SHENZHEN OLIVE BIOPHARMACEUTICALS CO., LTD, priority 2020, published 2024).

Key:
db/db mice = assay: Urinary protein level in db/db mice, 90 d administration; type: in vivo; details: once/d 90 d, OLB-1 11.7 mg/kg, OLB-2 11.67 mg/kg, FIG. 2
Method: Mice of a normal control group and model mice were given normal saline 10 ml/kg/d, Losartan 10 mg/kg, TMP (5.0 mg/kg, 0.037 mmol/kg), OLB-1 (11.7 mg/kg, 0.037 mmol/kg), and OLB-2 (11.67 mg/kg, […]), at a volume of 10 mL/kg, once/d, for continuous administration of 90 d, urine protein levels were measured after urine collection. Data were presented as mean±SEM; n=6 per group. One-way ANOVA and multiple range test were adopted to show differences between the two groups. a, p<0.05 vs. db/db group; c, p<0.001 vs. db/db group.

SH—SY5Y cells = assay: Neuroprotection against oxygen glucose deprivation (OGD), MTT assay; type: cell-based; details: 4 h OGD, FIG. 1
Method: Neuroprotective effect of tetramethylpyrazine (TMP) and derivatives thereof was evaluated by MTT assay. Cells were incubated, log-phase cells were collected, a concentration of a cell suspension was adjusted, an MTT-containing medium was added after chemical treatment and 4 h of incubation with OGD, incubation was conducted for 4 h, the medium in the wells was carefully removed, and 150 μl of dimethyl sulfoxide (DMSO) was added to each well, shaken at a low speed for 10 min on a shaker to fully dissolve crystals, and an absorbance value of each well was measured at an OD (absorbance) value of 490 nm of an enzyme-linked immunosorbent assay instrument (at the same time, a zero adjustment well (medium, MTT, DMSO), a control well (cells, a drug dissolution medium with the same concentration, medium, MTT, DMSO)). Data were presented as mean±SEM; n=8 per group. One-way ANOVA and multiple range test were adopted to show differences between the two groups. a, p<0.001 vs. control group; b, p<0.05 vs. OGD group; c, p<0.001 vs. OGD group.

[1] = tested on: SH—SY5Y neuroblastoma cells; assay: LPS-induced inflammatory factors and oxidative stress-related proteins, ELISA kit; type: cell-based; details: 1 μg/mL LPS 24 h, mean±SEM, n=8; for TNF-alpha: differentiated SH-SY5Y, supernatant
Method: The SH—SY5Y cells were recovered and cultured, and the cells in the logarithmic growth phase were taken. After 24 h of incubation, SH—SY5Y neuroblastoma cells were treated with 1 μM all-trans retinoic acid to induce differentiation, and then inoculated into a 6-well culture dish for 24 h of incubation. The medium was treated with chemicals feed at 0.2 μM (L) or 1 μM (H) and 1 μg/mL LPS for 24 h, a supernatant medium was aspirated, and changes of inflammatory factors and oxidative stress-related proteins were measured by an ELISA kit. Data were presented as mean±SEM; n=8 per group. One-way ANOVA and multiple range test were adopted to show differences between the two groups. a, p<0.05 vs. LPS group; b, p<0.01 vs. LPS group; c, p<0.001 vs. LPS group.

SMILES: Cc1nc(C)c(COC(=O)OCCc2ccc(O)cc2)nc1C [OLB-1]
- urinary protein levels (db/db mice): significantly reduced urinary protein levels
- death of SH—SY5Y cells caused by OGD (SH—SY5Y cells): significantly reduce the death
- GSH-Px ([1]; compound 0.2 μM (L)): 8.39 ± 0.69(c) umol/mg
- IL1 ([1]; compound 0.2 μM (L)): 10.94 ± 1.48(a) pg/ml
- IL6 ([1]; compound 0.2 μM (L)): 11.60 ± 1.39(a) pg/ml
- MDA ([1]; compound 0.2 μM (L)): 16.15 ± 1.26(c) nmol/mg
- SOD ([1]; compound 0.2 μM (L)): 12.58 ± 0.72(b) nU/ml
- GSH-Px ([1]; compound 1 μM (H)): 13.71 ± 0.84(c) umol/mg
- IL1 ([1]; compound 1 μM (H)): 8.46 ± 1.33(b) pg/ml
- IL6 ([1]; compound 1 μM (H)): 7.97 ± 1.61(c) pg/ml
- MDA ([1]; compound 1 μM (H)): 10.51 ± 0.74(c) nmol/mg
- SOD ([1]; compound 1 μM (H)): 16.76 ± 0.38(c) nU/ml
- TNF-alpha ([1]; compound 0.2 μM (L)): 9.64 ± 1.56(a) pg/ml
- TNF-alpha ([1]; compound 1 μM (H)): 6.78 ± 1.67(c) pg/ml

SMILES: Cc1nc(C)c(CNC(=O)OCCc2ccc(O)cc2)nc1C [OLB-2]
- urinary protein levels (db/db mice): significantly reduced urinary protein levels
- death of SH—SY5Y cells caused by OGD (SH—SY5Y cells): significantly reduce the death
- GSH-Px ([1]; compound 0.2 μM (L)): 7.93 ± 1.05(b) umol/mg
- IL1 ([1]; compound 0.2 μM (L)): 10.34 ± 1.89(a) pg/ml
- IL6 ([1]; compound 0.2 μM (L)): 11.05 ± 1.87(a) pg/ml
- MDA ([1]; compound 0.2 μM (L)): 15.75 ± 0.95(c) nmol/mg
- SOD ([1]; compound 0.2 μM (L)): 12.13 ± 0.65(b) nU/ml
- GSH-Px ([1]; compound 1 μM (H)): 13.40 ± 1.24(c) umol/mg
- IL1 ([1]; compound 1 μM (H)): 7.37 ± 1.58(c) pg/ml
- IL6 ([1]; compound 1 μM (H)): 8.19 ± 1.24(c) pg/ml
- MDA ([1]; compound 1 μM (H)): 9.37 ± 0.73(c) nmol/mg
- SOD ([1]; compound 1 μM (H)): 15.16 ± 1.52(c) nU/ml
- TNF-alpha ([1]; compound 0.2 μM (L)): 9.92 ± 1.44(b) pg/ml
- TNF-alpha ([1]; compound 1 μM (H)): 6.99 ± 1.31(c) pg/ml
